Assay results from patent USRE46095E1, “Herbicidal compositions” (BAYER CROPSCIENCE AG, priority 2008, dated 2016).
Structures can show the parent of a compound that is named as a salt.

Columns and labels:
Format in all cases: in vivo
Geranium dissectum = assay: Pre-emergence herbicidal action, pot trial/greenhouse (Example 5.3, Table 6); settings: 672 h, read-out: Herbicidal action [%] against Geranium dissectum; for pest or weed control at 50 g/ha: 50 g of AS/ha
Text: (§1) Seeds or rhizome pieces of monocotyledonous and dicotyledonous harmful plants are placed in sandy loam in pots and covered with soil. The compositions, formulated as concentrated aqueous solutions, wettable powders or emulsion concentrates, are then applied to the surface of the covering soil as an aqueous solution, suspension or emulsion at an application rate of 300 to 800I of water/ha (converted) in a variety of dosages. After the treatment, the pots are placed in a green-house and kept under good growth conditions for the weeds. Visual scoring of plant or emergence damage is carried out after the test plants have emerged after an experimental period of 3 to 4 weeks in comparison with untreated controls.
(§2) The herbicidal efficacy of the active compounds or active compound mixtures was scored visually by comparing the treated pots (soil) with untreated controls. The damage and development of all above-ground plant parts was recorded. Scoring was done on a percentage scale (example values: 100% action=all plants dead or not emerged; 50% action=50% of the plants and green plant parts dead or not emerged; 0% action=no discernible action=like control plot). The score figures of in any case 2 repetitions (pots) were averaged.
(§3) When the data observed already exceed the formal total of the data in the experiments with individual applications, they likewise exceed the expected value according to Colby, which is calculated using the formula below and is likewise regarded as an indication of synergism (cf. S. R. Colby; in Weeds 15 (1967) pp. 20 to 22): E=A+B−(A·B/100)
(§4) In this formula: • A=action of active compound (A) in % at an application rate of a g of AS/ha; • B=action of active compound (B) in % at an application rate of b g of AS/ha; • E=expected value of the action of the combination (A)+(B) in % at the combined application rate a+b g of AS/ha.
(§5) The following abbreviations are used in the description and the tables below: • g of AS/ha=grams of active substance (=100% active compound) per hectare; • the total of the activities of the individual applications is given as E^A; • the expected values according to Colby are in each case given as E^C; Example 5.1
(§6) Certain combinations were tested for their herbicidal activity in accordance with the general example 1 (pre-emergence method).

Erodium cicutarium = assay: Pre-emergence herbicidal action, pot trials/greenhouse (Example 5.2, Table 5); settings: evaluation 28 days after treatment
Text: as §1, §2, §3, §4, §5, §6

Ipomoea hederifolia = assay: Pre-emergence herbicidal action, pot trials/greenhouse (Example 5.1, Table 4); settings: evaluation 27 days after treatment
Text: as §1, §2, §3, §4, §5, §6

[1] = pot trial/greenhouse, evaluation 28 days after treatment

## CCOC1Oc2ccc(OS(C)(=O)=O)cc2C1(C)C (racemic) [(B2.5), (RS)—O-(2-ethoxy-2,3-dihydro-3,3-dimethylbenzofuran-5-yl)methanesulfonate]
Geranium dissectum; 300 g of AS/ha, pot trial/greenhouse, evaluation 28 days after treatment
  pest or weed control at 300 g/ha: 35%

## Cc1ccc2c(c1)[C@H](Nc1nc(N)nc([C@@H](C)F)n1)[C@@H](C)C2 [(A21), 2-amino-4-[(1R,2S)-2,6-dimethyl-indan-1-ylamino]-6-[(1R)-1-fluoroethyl]-1,3,5-triazine]
Geranium dissectum; 0.3 g of AS/ha, pot trial/greenhouse, evaluation 28 days after treatment
  pest or weed control at 0.3 g/ha: 5%
Geranium dissectum; 1.2 g of AS/ha, pot trial/greenhouse, evaluation 28 days after treatment
  pest or weed control at 1.2 g/ha: 20%
Erodium cicutarium; 0.2 g of AS/ha
  Herbicidal action [%] against Erodium cicutarium: 0%
Erodium cicutarium; 0.8 g of AS/ha
  Herbicidal action [%] against Erodium cicutarium: 25%
Ipomoea hederifolia; 0.2 g of AS/ha
  Herbicidal action [%] against Ipomoea hederifolia: 0%
Ipomoea hederifolia; 0.5 g of AS/ha
  Herbicidal action [%] against Ipomoea hederifolia: 45%

## COC(=O)c1csc(C)c1S(=O)(=O)NC(=O)n1nc(OC)n(C)c1=O [(B1.1.2), methyl 4-[(4,5-dihydro-3-methoxy-4-methyl-5-oxo-1H-1,2,4-triazol-1-yl)carbonylsulfamoyl]-5-methylthiophene-3-carboxylate]
Ipomoea hederifolia; 0.5 g of AS/ha
  Herbicidal action [%] against Ipomoea hederifolia: 5%
Ipomoea hederifolia; 2.0 g of AS/ha
  Herbicidal action [%] against Ipomoea hederifolia: 50%

## CS(=O)(=O)c1ccc(C(=O)C2C(=O)CCCC2=O)c(Cl)c1COCC(F)(F)F [(B1.2.1), 2-{2-chloro-4-mesyl-3-[(2,2,2-trifluoroethoxy)methyl]benzoyl}cyclohexane-1,3-dione]
Erodium cicutarium; 50 g of AS/ha
  Herbicidal action [%] against Erodium cicutarium: 30%

## CCOC(=O)COc1ncccc1Oc1cc(-n2c(=O)cc(C(F)(F)F)n(C)c2=O)c(F)cc1Cl [(B1.3), ethyl [[3-[2-chloro-5-[3,6-dihydro-3-methyl-2,6-dioxo-4-(trifluoromethyl)-1(2H)-pyrimidinyl]-4-fluorophenoxy]-2-pyridinyl]oxy]acetate]
Erodium cicutarium; 15 g of AS/ha
  Herbicidal action [%] against Erodium cicutarium: 65%

## COc1cc(OC)n2nc(NS(=O)(=O)c3c(C(F)(F)F)ccnc3OC)nc2n1 [(B1.4.1), N-(5,7-dimethoxy[1,2,4]triazolo[1,5-a]pyrimidin-2-yl)-2-methoxy-4-(trifluoromethyl)pyridine-3-sulfonamide]
Erodium cicutarium; 5 g of AS/ha
  Herbicidal action [%] against Erodium cicutarium: 50%

## COCCOCc1nc(C(F)(F)F)ccc1C(=O)C1=C(O)C2CCC(C2)C1=O (stereo not shown) [(B1.6.1), 4-hydroxy-3-[[2-[(2-methoxyethoxy)methyl]-6-trifluoromethyl-3-pyridinyl]carbonyl]-bicyclo[3.2.1]oct-3-en-2-one]
Erodium cicutarium; 30 g of AS/ha
  Herbicidal action [%] against Erodium cicutarium: 55%

## Cc1nn(C)c(O)c1C(=O)c1ccc(C(F)(F)F)cc1S(C)(=O)=O [(B2.1.1), (5-hydroxy-1,3-dimethyl-1H-pyrazol-4-yl)-[2-(methylsulfonyl)-4-(trifluoromethyl)-phenyl]methanone]
Geranium dissectum; 30 g of AS/ha, pot trial/greenhouse, evaluation 28 days after treatment
  pest or weed control at 30 g/ha: 20%

## COc1cc(OC)nc(NC(=O)NS(=O)(=O)c2ncccc2OCC(F)(F)F)n1 [(B2.2.2), 1-(4,6-dimethoxypyrimidin-2-yl)-3-[3-(2,2,2-trifluoroethoxy)-2-pyridylsulfonyl]urea sodium salt]
Geranium dissectum
  pest or weed control at 25 g/ha: 45%

## CC(C)N(C)S(=O)(=O)NC(=O)c1cc(-n2c(=O)cc(C(F)(F)F)n(C)c2=O)c(F)cc1Cl [(B2.3.1), 2-chloro-5-[3,6-dihydro-3-methyl-2,6-dioxo-4-(trifluoromethyl)-1 (2H)-pyrimidinyl]-4-fluoro-N-[[methyl(1-methylethyl)amino]sulfonyl]benzamide]
Geranium dissectum; [1]
  pest or weed control at 50 g/ha: 65%

## Nc1cc(Cl)nc(C(=O)O)c1Cl [(B2.4.1), 4-amino-3,6-dichloropyridine-2-carboxylic acid]
Geranium dissectum; 75 g of AS/ha, pot trial/greenhouse, evaluation 28 days after treatment
  pest or weed control at 75 g/ha: 50%

## Nc1nc(C2CC2)nc(C(=O)O)c1Cl [(B2.6.1), 6-amino-5-chloro-2-cyclopropylpyrimidine-4-carboxylic acid]
Geranium dissectum; 100 g of AS/ha, pot trial/greenhouse, evaluation 28 days after treatment
  pest or weed control at 100 g/ha: 65%

## Cn1nc(C(F)(F)F)c(CS(=O)(=O)C2=NOC(C)(C)C2)c1OC(F)F [(B3.1), 3-[5-(difluoromethoxy)-1-methyl-3-(trifluoromethyl)pyrazol-4-ylmethylsulfonyl]-4,5-dihydro-5,5-dimethyl-1,2-oxazole]
Geranium dissectum; [1]
  pest or weed control at 50 g/ha: 50%
